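Exposure lasted 48 hours, with cells grown in 96-well plates and compounds tested at five concentrations. Here, GI50 denotes the concentration required for 50% inhibition of growth.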 The source made the active and inactive calls. No stated cut-off is given here; in the data, active = GI50 up to about 1.1 µM and inactive = higher.
Assays:
Test in all cases: inhibition of tumour cell growth, NCI panel, 48 h
DU-145 = system: DU-145
KM12 = system: KM12
MDA-MB-231 = system: MDA-MB-231
EKVX = system: EKVX
HT-29 = system: HT-29
Malme-3M = system: Malme-3M
K562 = system: K562
CCRF-CEM = system: CCRF-CEM
PC-3 = system: PC-3
UACC-257 = system: UACC-257
SK-MEL-28 = system: SK-MEL-28
U-251 = system: U-251
MDA-N = system: MDA-N
HCT-15 = system: HCT-15
OVCAR-5 = system: OVCAR-5
RPMI-8226 = system: RPMI-8226
LOX IMVI = system: LOX IMVI
OVCAR-8 = system: OVCAR-8
SNB-19 = system: SNB-19
SR = system: SR
HCC 2998 = system: HCC 2998
MCF7 = system: MCF7
MDA-MB-435 = system: MDA-MB-435
OVCAR-4 = system: OVCAR-4
COLO 205 = system: COLO 205
ACHN = system: ACHN
SW-620 = system: SW-620
SK-MEL-5 = system: SK-MEL-5
HCT-116 = system: HCT-116
IGROV-1 = system: IGROV-1
NCI-H460 = system: NCI-H460
M14 = system: M14
SN12C = system: SN12C
BT-549 = system: BT-549
NCI/ADR-RES = system: NCI/ADR-RES
HL-60 = system: HL-60
MOLT-4 = system: MOLT-4
HOP-92 = system: HOP-92
SF-295 = system: SF-295
SK-MEL-2 = system: SK-MEL-2
UO-31 = system: UO-31
HOP-62 = system: HOP-62
CAKI-1 = system: CAKI-1
TK-10 = system: TK-10
OVCAR-3 = system: OVCAR-3
NCI-H23 = system: NCI-H23
786-0 = system: 786-0
A549 = system: A549
SF-268 = system: SF-268
Hs-578T = system: Hs-578T
NCI-H522 = system: NCI-H522
SNB-75 = system: SNB-75
SK-OV-3 = system: SK-OV-3
SF-539 = system: SF-539
T47D = system: T47D
RXF 393 = system: RXF 393
UACC-62 = system: UACC-62
NCI-H226 = system: NCI-H226
A498 = system: A498

For `O=S1(=O)OCCOS(=O)(=O)C1S(=O)(=O)c1ccc2ccccc2c1`, the GI50 (DU-145) was > 100 µM (inactive), the GI50 (KM12) was > 100 µM (inactive) and the GI50 (MDA-MB-231) was > 100 µM (inactive). For the same compound, the GI50 (EKVX) was > 100 µM (inactive), the GI50 (HT-29) was > 100 µM (inactive) and the GI50 (Malme-3M) was > 100 µM (inactive). The GI50 (K562) was > 100 µM (inactive), the GI50 (CCRF-CEM) was > 100 µM (inactive) and the GI50 (PC-3) was > 100 µM (inactive). The GI50 (UACC-257) was > 100 µM (inactive), the GI50 (SK-MEL-28) was > 100 µM (inactive) and the GI50 (U-251) was > 100 µM (inactive). The GI50 (MDA-N) was > 100 µM (inactive), the GI50 (HCT-15) was over 100 µM and the GI50 (OVCAR-5) was > 100 µM (inactive). For the same compound, the GI50 (RPMI-8226) was > 100 µM (inactive), the GI50 (LOX IMVI) was > 100 µM (inactive) and the GI50 (OVCAR-8) was > 100 µM (inactive). The GI50 (SNB-19) was > 100 µM (inactive), the GI50 (SR) was > 100 µM (inactive) and the GI50 (HCC 2998) was > 100 µM (inactive). The GI50 (MCF7) was > 100 µM (inactive), the GI50 (MDA-MB-435) was > 100 µM (inactive) and the GI50 (OVCAR-4) was > 100 µM (inactive). The GI50 (COLO 205) was > 100 µM (inactive), the GI50 (ACHN) was > 100 µM (inactive) and the GI50 (SW-620) was > 100 µM (inactive). For the same compound, the GI50 (SK-MEL-5) was > 100 µM (inactive), the GI50 (HCT-116) was > 100 µM (inactive) and the GI50 (IGROV-1) was > 100 µM (inactive). For the same compound, the GI50 (NCI-H460) was > 100 µM (inactive), the GI50 (M14) was > 100 µM (inactive) and the GI50 (SN12C) was > 100 µM (inactive). The GI50 (BT-549) was > 100 µM (inactive), the GI50 (NCI/ADR-RES) was > 100 µM (inactive) and the GI50 (HL-60) was > 100 µM (inactive). The GI50 (MOLT-4) was > 100 µM (inactive), the GI50 (HOP-92) was > 100 µM (inactive) and the GI50 (SF-295) was > 100 µM (inactive). For the same compound, the GI50 (SK-MEL-2) was > 100 µM (inactive), the GI50 (UO-31) was > 100 µM (inactive) and the GI50 (HOP-62) was > 100 µM (inactive). For the same compound, the GI50 (CAKI-1) was > 100 µM (inactive), the GI50 (TK-10) was > 100 µM (inactive) and the GI50 (OVCAR-3) was > 100 µM (inactive). The GI50 (NCI-H23) was > 100 µM (inactive), the GI50 (786-0) was > 100 µM (inactive) and the GI50 (A549) was > 100 µM (inactive).
In the case of `COc1cc(C2c3cc4c(cc3[C@@H](Nc3ccc(F)cc3)C3COC[C@H]23)OCO4)cc(OC)c1O` (some centres undefined), the GI50 (KM12) is reported as 4.66 µM (inactive), the GI50 (MDA-MB-231) is reported as 2.74 µM (inactive) and the GI50 (EKVX) is reported as 9.91 µM (inactive). The GI50 (SF-268) was 3.85 µM (inactive), the GI50 (HT-29) was 3.44 µM (inactive) and the GI50 (K562) was 4.19 µM (inactive). The GI50 (CCRF-CEM) was 0.622 µM (active), the GI50 (PC-3) was 3.26 µM (inactive) and the GI50 (UACC-257) was 7.82 µM (inactive). The GI50 (Hs-578T) was 0.589 µM (active), the GI50 (SK-MEL-28) was 5 µM (inactive) and the GI50 (U-251) was 0.811 µM (active). The GI50 (MDA-N) was 7.66 µM (inactive), the GI50 (NCI-H522) was 3.22 µM (inactive) and the GI50 (HCT-15) was 2.48 µM. The GI50 (OVCAR-5) was 3.62 µM (inactive), the GI50 (SNB-75) was 2.77 µM (inactive) and the GI50 (RPMI-8226) was 1.49 µM (inactive). For the same compound, the GI50 (OVCAR-8) was 2.8 µM (inactive), the GI50 (SNB-19) was 0.885 µM (active) and the GI50 (SR) was 0.543 µM (active). For the same compound, the GI50 (HCC 2998) was 6.85 µM (inactive), the GI50 (SK-OV-3) was 4.98 µM (inactive) and the GI50 (MCF7) was 1.1 µM (active). The GI50 (MDA-MB-435) was 6.15 µM (inactive), the GI50 (OVCAR-4) was 11.7 µM (inactive) and the GI50 (COLO 205) was 4.73 µM (inactive). For the same compound, the GI50 (ACHN) was 1.03 µM (active), the GI50 (SW-620) was 3.15 µM (inactive) and the GI50 (SK-MEL-5) was 3.43 µM (inactive). For the same compound, the GI50 (HCT-116) was 2.07 µM (inactive), the GI50 (IGROV-1) was 11.9 µM (inactive) and the GI50 (NCI-H460) was 0.152 µM (active). For the same compound, the GI50 (M14) was 2.22 µM (inactive), the GI50 (SN12C) was 2 µM (inactive) and the GI50 (NCI/ADR-RES) was 6.92 µM (inactive). For the same compound, the GI50 (HL-60) was 0.533 µM (active), the GI50 (MOLT-4) was 0.118 µM (active) and the GI50 (SF-295) was 0.877 µM (active). The GI50 (SF-539) was 0.75 µM (active), the GI50 (UO-31) was 0.488 µM (active) and the GI50 (HOP-62) was 2.45 µM (inactive). For the same compound, the GI50 (TK-10) was 5.9 µM (inactive), the GI50 (786-0) was 1.75 µM (inactive) and the GI50 (A549) was 0.451 µM (active). For the same compound, the GI50 (T47D) was 1.74 µM (inactive).
In the case of `C/C(=C\CNc1nc(Cl)nc2[nH]cnc12)CO`, the GI50 (DU-145) is reported as > 100 µM (inactive), the GI50 (KM12) is reported as > 100 µM (inactive) and the GI50 (MDA-MB-231) is reported as > 100 µM (inactive). The GI50 (EKVX) was > 100 µM (inactive), the GI50 (SF-268) was > 100 µM (inactive) and the GI50 (RXF 393) was > 100 µM (inactive). For the same compound, the GI50 (HT-29) was > 100 µM (inactive), the GI50 (Malme-3M) was > 100 µM (inactive) and the GI50 (K562) was > 100 µM (inactive). For the same compound, the GI50 (CCRF-CEM) was > 100 µM (inactive), the GI50 (PC-3) was > 100 µM (inactive) and the GI50 (UACC-257) was > 100 µM (inactive). The GI50 (Hs-578T) was > 100 µM (inactive), the GI50 (SK-MEL-28) was > 100 µM (inactive) and the GI50 (MDA-N) was > 100 µM (inactive). For the same compound, the GI50 (NCI-H522) was > 100 µM (inactive), the GI50 (UACC-62) was > 100 µM (inactive) and the GI50 (OVCAR-5) was > 100 µM (inactive). For the same compound, the GI50 (SNB-75) was 96.4 µM (inactive), the GI50 (RPMI-8226) was > 100 µM (inactive) and the GI50 (LOX IMVI) was > 100 µM (inactive). For the same compound, the GI50 (OVCAR-8) was > 100 µM (inactive), the GI50 (SNB-19) was > 100 µM (inactive) and the GI50 (SR) was > 100 µM (inactive). The GI50 (HCC 2998) was > 100 µM (inactive), the GI50 (SK-OV-3) was > 100 µM (inactive) and the GI50 (MCF7) was > 100 µM (inactive). The GI50 (MDA-MB-435) was > 100 µM (inactive), the GI50 (OVCAR-4) was > 100 µM (inactive) and the GI50 (COLO 205) was > 100 µM (inactive). The GI50 (ACHN) was > 100 µM (inactive), the GI50 (SW-620) was > 100 µM (inactive) and the GI50 (SK-MEL-5) was > 100 µM (inactive). The GI50 (HCT-116) was > 100 µM (inactive), the GI50 (IGROV-1) was > 100 µM (inactive) and the GI50 (NCI-H460) was > 100 µM (inactive). For the same compound, the GI50 (M14) was > 100 µM (inactive), the GI50 (NCI-H226) was > 100 µM (inactive) and the GI50 (SN12C) was > 100 µM (inactive). The GI50 (NCI/ADR-RES) was > 100 µM (inactive), the GI50 (HL-60) was > 100 µM (inactive) and the GI50 (MOLT-4) was > 100 µM (inactive). The GI50 (HOP-92) was > 100 µM (inactive), the GI50 (SF-295) was > 100 µM (inactive) and the GI50 (A498) was > 100 µM (inactive). The GI50 (SF-539) was > 100 µM (inactive), the GI50 (UO-31) was > 100 µM (inactive) and the GI50 (HOP-62) was > 100 µM (inactive). The GI50 (CAKI-1) was > 100 µM (inactive), the GI50 (TK-10) was > 100 µM (inactive) and the GI50 (OVCAR-3) was > 100 µM (inactive). The GI50 (NCI-H23) was > 100 µM (inactive), the GI50 (786-0) was > 100 µM (inactive) and the GI50 (A549) was > 100 µM (inactive). For the same compound, the GI50 (T47D) was > 100 µM (inactive).
